In US11180495B2 (Abbisko Therapeutics Co., Ltd., priority 2017, dated 2021):
Read-outs that look alike come from different tables or passages of the source.

Assays:
Format in all cases: cell-based
[1] = system: M-NFS-60 mouse myeloid leukemia lymphocytes; test: CSF-1R-related cell proliferation experiment (Cell Titer Glo); details: 72 h, M-NFS-60 cells, 3 days, CTG
Method: Functional effects of compounds on cell proliferation were evaluated by using Cell Titer Glo (CTG) study in the present invention. M-NFS-60 mouse myeloid leukemia lymphocytes (cat. No. CCBJ078) from National Institutes For Food and Drug Control were cultured in the incubator under conditions of RPMI 1640 (Gibco, cat. No. 11875-119), 10% fetal bovine serum (Gibco, 10099-141), human 10 ng/mL M-CSF macrophage colony-stimulating factor (R&D, cat. No. MVN0915101), 37° C. and 5% CO2. Since ATP is an index for viable cell metabolism, CTG (Promega, #G7573) reagent is a homogeneous detection method for detecting the number of viable cells in the culture by quantifying ATP. Therefore, compound-mediated inhibition for cell proliferation/survival was evaluated by quantifying ATP in cells, and the specific experimental process was as follows: • 1. The cells were plated into a tissue-culture-medium-treated 96-well plate (Costar #3904) with 5,000 cells/well/80 μL fresh culture medium: • 2. 24 hours later, 10 μL culture medium containing testing compound with 10-fold of final concentration was added to each well; • 3. 10 μL of culture medium containing M-CSF with 10-fold of the final concentration was then added to each well: • 4. dosage effect was evaluated by testing the 3-fold serial dilutions of the compound; • 5. after the cells were incubated for 3 days at 37° C. and 5% CO2, the inhibition on cell survival was quantified after 50 μL of CTG was added and the luminescence assay was performed; • 6. the compound concentration leading to half maximal inhibitory (IC50) and the compound concentration leading to absolute half maximal inhibitory (Absolute IC50) were measured by a plate reader (M1000, Tecan) and a four-parameter curve fit in Graphpad Prism 7. D. CSF-1R-Related Cell Proliferation Experiment

[2] = system: MV-4-11 human acute monocytic leukemia cells; test: FLT3-related cell proliferation experiment (Cell Titer Glo); details: MV4-11, 72 h, MV-4-11 cells, 3 days, CTG, read-out: Cytological experiment FLT3 IC50
Method: (§1) Functional effects of compounds on the proliferation of several cell lines were evaluated by Cell Titer Glo (CTG) studies in the present invention, and effects of the compounds on the proliferation of different cells were evaluated to determine the selectivity degree of the compounds. In the study, M-07e human cytomegalic leukemia cells (cat. No. CBP60791) from Nanjing Kebai Biotechnology Co., Ltd. were cultured in an incubator under conditions of RPMI1640 (Gibco, cat. No. 11875-119), 20% fetal bovine serum (Gibco, 10099-141), human 10 ng/mL GM-CSF granulocyte macrophage colony-stimulating factors (R&D, cat. No. 215-GM-010), 37° C. and 5% CO2; and Kasumi-1 human acute myeloblastic leukemia cells (cat. No. CBP60524) were cultured in an incubator under conditions of RPMI1640 (Gibco, cat. No. 11875-119), 20% fetal bovine serum (Gibco, 10099-141), 37° C. and 5% CO2; NCI-H1703 human non-small cell lung squamous carcinoma cells (cat. No. CBP60115) were cultured in an incubator under conditions of RPMI1640 (Gibco, cat. No. 11875-119), 10% fetal bovine serum (Gibco, 10099-141), 37° C. and 5% CO2; and MV-4-11 human acute monocytic leukemia cells (cat. No. CBP60522) were cultured in an incubator under conditions of IMDM (Invitrogen, cat. No. 12440053), 20% fetal bovine serum (Gibco, 10099-141), 37° C. and 5% CO2. Since ATP is an index for viable cell metabolism, CTG (Promega, #G7573) reagent is a homogeneous detection method for detecting the number of viable cells in the culture by quantifying ATP. Therefore, compound-mediated inhibition for cell proliferation/survival was evaluated by quantifying ATP content in cells, and the specific experimental process was as follows.
III) MV-4-11 Human Acute Monocytic Leukemia Cell • 1.

[3] = system: NCI-H1703 human non-small cell lung squamous carcinoma cells; test: PDGFRA-related cell proliferation experiment (Cell Titer Glo); details: 72 h, 3 days, CTG, read-out: Cytological experiment PDGFRA IC50
Method: as §1
II) NCI-H1703 Human Non-Small Cell Lung Squamous Carcinoma Cell • 1.

[4] = absolute half maximal inhibitory concentration, read-out: Cytological experiment CSF-1R Absolute IC50
[5] = read-out: Cytological experiment CSF1R IC50

Compound `Cc1nc(-c2cnc3n(c2=O)CCC(C)N3C)ccc1Cc1c[nH]c2ncc(Cl)cc12` (stereo not drawn) [Example 15, 3-(5-((5-chloro-1H-pyrrolo[2,3-b]pyridin-3-yl)methyl)-6-methylpyridin-2-yl)-8,9-dimethyl-6,7,8,9-tetrahydro-4H-pyrimido[1,2-a]pyrimidin-4-one] has an IC50 [1, 4] of 0.0833 µM, an IC50 [1, 5] of 0.0913 µM and an IC50 [2] greater than 2 µM. For the same compound, the IC50 [3] was greater than 2 µM.

Compound `Cc1nc(-c2cnc3n(c2=O)CCCN3C)ccc1Cc1c[nH]c2ncc(-c3cnn(C)c3)cc12` [Example 18, 9-methyl-3-(6-methyl-5-((5-(1-methyl-1H-pyrazol-4-yl)-1H-pyrrolo[2,3-b]pyridin-3-yl)methyl)pyridin-2-yl)-6,7,8,9-tetrahydro-4H-pyrimido[1,2-a]pyrimidin-4-one] has an IC50 [1, 4] of 0.0049 µM, an IC50 [1, 5] of 0.005 µM and an IC50 [2] of 0.505 µM. For the same compound, the IC50 [3] was 0.447 µM.

Compound `Cc1nc(-c2cnc(NC(C)C)[nH]c2=O)ccc1Cc1c[nH]c2ncc(F)cc12` [Example 5, 5-(5-((5-fluoro-1H-pyrrolo[2,3-b]pyridin-3-yl)methyl)-6-methylpyridin-2-yl)-2-(isopropylamino)pyrimidin-4(3H)-one] has an IC50 [1, 4] of 0.0479 µM, an IC50 [1, 5] of 0.0779 µM and an IC50 [2] greater than 2 µM. For the same compound, the IC50 [3] was 1.82 µM.

Compound `Cc1nc(-c2cnc3n(c2=O)CCCN3C)ccc1Cc1c[nH]c2ncccc12` [Example 14, 3-(5-((1H-pyrrolo[2,3-b]pyridin-3-yl)methyl)-6-methylpyridin-2-yl)-9-methyl-6,7,8,9-tetrahydro-4H-pyrimido[1,2-a]pyrimidin-4-one] has an IC50 [1, 4] of 0.105 µM, an IC50 [1, 5] of 0.0967 µM and an IC50 [2] greater than 18 µM. The IC50 [3] was greater than 18 µM.

Compound `COc1cnc2[nH]cc(Cc3ccc(-c4cnc5n(c4=O)CCCN5C)nc3C)c2c1` [Example 22, 3-(5-((5-methoxy-1H-pyrrolo[2,3-b]pyridin-3-yl)methyl)-6-methylpyridin-2-yl)-9-methyl-6,7,8,9-tetrahydro-4H-pyrimido[1,2-a]pyrimidin-4-one] has an IC50 [1, 4] of 0.0391 µM, an IC50 [1, 5] of 0.048 µM and an IC50 [2] greater than 6 µM. The IC50 [3] was greater than 2 µM.

`CCN1CCCn2c1ncc(-c1ccc(Cc3c[nH]c4ncc(Cl)cc34)c(C)n1)c2=O` [Example 16, 3-(5-((5-chloro-1H-pyrrolo[2,3-b]pyridin-3-yl)methyl)-6-methylpyridin-2-yl)-9-ethyl-6,7,8,9-tetrahydro-4H-pyrimido[1,2-a]pyrimidin-4-one] gave an IC50 [1, 4] of 0.0718 µM, an IC50 [1, 5] of 0.0686 µM and an IC50 [2] of 0.876 µM. The IC50 [3] was 1.03 µM.

With `Cc1nc(-c2cnc3n(c2=O)CCCN3C)ccc1Cc1c[nH]c2ncc(O)cc12` [Example 23] the IC50 [1, 4] was 0.131 µM, the IC50 [1, 5] was 0.14 µM and the IC50 [2] was greater than 2 µM. It also gave an IC50 [3] greater than 6 µM.

`Cc1cnc2[nH]cc(Cc3ccc(-c4cnc5n(c4=O)CCCN5C)nc3C)c2c1` [Example 21, 9-methyl-3-(6-methyl-5-((5-methyl-1H-pyrrolo[2,3-b]pyridin-3-yl)methyl)pyridin-2-yl)-6,7,8,9-tetrahydro-4H-pyrimido[1,2-a]pyrimidin-4-one] showed an IC50 [1, 4] of 0.0456 µM, an IC50 [1, 5] of 0.054 µM and an IC50 [2] greater than 18 µM. For the same compound, the IC50 [3] was greater than 18 µM.

Work on `Cc1nc(-c2cnc3n(c2=O)CCCN3C)ccc1Cc1c[nH]c2ncc(F)cc12` [Example 20, 3-(5-((5-fluoro-1H-pyrrolo[2,3-b]pyridin-3-yl)methyl)-6-methylpyridin-2-yl)-9-methyl-6,7,8,9-tetrahydro-4H-pyrimido[1,2-a]pyrimidin-4-one] yielded an IC50 [1, 4] of 0.106 µM, an IC50 [1, 5] of 0.0922 µM and an IC50 [2] greater than 18 µM. For the same compound, the IC50 [3] was greater than 18 µM.

`Cc1nc(-c2cnc(NC(C)C)n(C)c2=O)ccc1Cc1c[nH]c2ncccc12` [Example 7, 5-(5-((1H-pyrrolo[2,3-b]pyridin-3-yl)methyl)-6-methylpyridin-2-yl)-2-(isopropylamino)-3-methylpyrimidin-4(3H)-one] showed an IC50 [1, 4] of 0.0337 µM, an IC50 [1, 5] of 0.0397 µM and an IC50 [2] of 1.29 µM. It also gave an IC50 [3] greater than 6 µM.

Compound `CCN1CCCn2c1ncc(-c1ccc(Cc3c[nH]c4ncc(-c5cnn(C)c5)cc34)c(C)n1)c2=O` [Example 17] has an IC50 [1, 5] of 0.0063 µM, an IC50 ([1]; Lymphocyte, absolute half maximal inhibitory concentration, read-out: Cytological experiment CSF-1R Absolute IC50) of 0.005 µM and an IC50 [2] of 0.0274 µM. For the same compound, the IC50 [3] was 0.0572 µM.

With `Cc1nc(-c2cnc3n(c2=O)CCCN3C)ccc1Cc1c[nH]c2ncc(Cl)cc12` [Example 13, 3-(5-((5-chloro-1H-pyrrolo[2,3-b]pyridin-3-yl)methyl)-6-methylpyridin-2-yl)-9-methyl-6,7,8,9-tetrahydro-4H-pyrimido[1,2-a]pyrimidin-4-one] the IC50 [1, 4] was 0.0386 µM, the IC50 [1, 5] was 0.0468 µM and the IC50 [2] was greater than 6 µM. The IC50 [3] was greater than 6 µM.
